# Source: patent publication US10273290B2, “Hydrocarbon double-stapled stabilized HIV-1 GP41 heptad repeat domain peptides” (DANA-FARBER CANCER INSTITUTE, INC., priority 2009, dated 2019)
# Bridge positions count the residues as written; N and C are the ends. Square brackets hold non-standard residues; d marks the D form. Ends that are not written are not given here. Peptide text beside a SMILES is read from it. * marks the point of attachment. FITC = O=C1OC2(c3ccc(O)cc3Oc3cc(O)ccc32)c2ccc(NC(=S)*)cc21; S5 = C=CCCC[C@](C)(N)C(=O)O; Nle = CCCC[C@H](N)C(=O)O
# Columns and labels:
# [1] = target: T1, chymotrypsin (Bos taurus, UniProt P00766); assay: Protease resistance assay, chymotrypsin (LC/MS); format: in vitro ADME; conditions: pH 7.4, 0.5 chymotrypsin, peptide 25 μM
# T1 construct: purchased Sigma
# Experimental: The DAD signal was set to 280 nm with an 8 nm bandwidth and MSD set to scan mode with one channel at (M+2H)/2, +1 mass units and the other at (M+3H)/3, +1 mass units. Integration of each MSD signal yielded areas under the curve of >10^8 counts. Reaction samples were composed of 5 μL peptide in DMSO (1 mM stock) and 195 μL of buffer consisting of 50 mM phosphate buffer pH 7.4 containing 2 mM CaCl2. Upon injection of the 0 hr time point sample, 2 μL of 50 ng/μL chymotrypsin (Sigma) was added and the amount of intact peptide quantitated by serial injection over time. An internal control of acetylated tryptophan carboxamide at a concentration of 100 μM was used to normalize each MSD data point. A plot of MSD area versus time yielded an exponential decay curve and half-lives were determined by nonlinear regression analysis using Prism software (GraphPad).
# [2] = Circular dichroism, α-helical content; format: physicochemical
# Experimental: The α-helicity of stapled modified polypeptides was compared to their unmodified counterparts by circular dichroism. CD spectra were obtained on an Aviv spectropolarimeter at 20° C. using the following standard measurement parameters: wavelength, 190-260 nm; step resolution, 0.5 nm; speed, 20 nm/sec; accumulations, 10; response, 1 sec; bandwidth, 1 nm; path length, 0.1 cm. The α-helical content of each peptide was calculated by dividing the mean residue ellipticity [θ]222obs, by the reported [θ]222obs for a model helical peptide (Forood, B., E. J. Feliciano, and K. P. Nambiar, PNAS, 1993. 90(3): p. 838-842; J. Martin Scholtz, Biopolymers, 1991. 31(13): p. 1463-1470; Lawless, M. K., et al., Biochemistry, 1996. 35(42): p. 13697-13708) or using, for example, the Aviv machine using CDNN software developed by Brohm in order to deduce five different secondary structure fractions (helix, parallel and antiparallel beta-sheet, beta-turn and random coil). Protein Engineering, 1992. 5(3); p. 191-195
# In order to evaluate secondary structure improvements of hydrocarbon-stapled peptides, we record and analyze circular dichroism (CD) spectra on an Aviv Biomedical spectrometer (model 410), as described above. […] The CD spectra are initially plotted as wavelength versus millidegree. […] After conversion to mean residue ellipticity, percent α-helicity can be calculated using the equation, % helicity=100×[θ]222/^max[θ]222, where ^max[θ]222=−40,000×[1−(2.5/number of amino acid residues)]. We also employ the curve-fitting CDDN software that is bundled with our spectrometer to calculate the relative fractions of secondary structure including α-helix, parallel and antiparallel β-sheet, β-turn and random coil.
# [3] = Chymotrypsin, pH 7
# Source text: Table printed on a drawing sheet, FIG. 17D
# Title: Chymotrypsin, pH 7
# First reader's note: The table also serves as the legend of the plot below it (fraction intact over time); the plot symbols before the compound names are left out.
# [4] = system: doubly-mutant HR1 peptides V38A/N42T and V38E/N42S; assay: Native PAGE complex assembly with mutant HR1 peptides; format: binding, HIV-1; conditions: for higher-order complex formation with doubly-mutant HR1 peptides: FITC-labeled peptides, native PAGE
# Source text: We first performed a native PAGE-based assay designed to monitor the capacity of FITC-HR2 and mutant HR1 peptides to interact to form a stable higher-order complex (He, Y., et al. PNAS (2008)).
# [5] = system: pepsin; assay: Protease resistance assay, pepsin at pH 2; conditions: pepsin at 0.5 ng/μL, peptide 25 μM, acidic conditions
# Experimental: The DAD signal was set to 280 nm with an 8 nm bandwidth and MSD set to scan mode with one channel at (M+2H)/2, +1 mass units and the other at (M+3H)/3, +1 mass units. […] Reaction samples were composed of 5 μL peptide in DMSO (1 mM stock) and 195 μL of buffer consisting of 50 mM phosphate buffer pH 7.4 containing 2 mM CaCl2. Upon injection of the 0 hr time point sample, 2 μL of 50 ng/μL chymotrypsin (Sigma) was added and the amount of intact peptide quantitated by serial injection over time. An internal control of acetylated tryptophan carboxamide at a concentration of 100 μM was used to normalize each MSD data point. A plot of MSD area versus time yielded an exponential decay curve and half-lives were determined by nonlinear regression analysis using Prism software (GraphPad). The assay was also performed using trypsin and pepsin in their appropriate buffer conditions.
compound,measurement,setting,value
"CCCC[C@H](NC(C)=O)C(=O)N[C@H](C(=O)N[C@@H](Cc1c[nH]c2ccccc12)C(=O)N[C@@H](CCCC)C(=O)N[C@@H](CCC(=O)O)C(=O)N[C@@H](Cc1c[nH]c2ccccc12)C(=O)N[C@@H](CC(=O)O)C(=O)N[C@@H](CCCNC(=N)N)C(=O)N[C@@H](CCC(=O)O)C(=O)N[C@H](C(=O)N[C@@]1(C)CCCC=CCCC[C@@](C)(C(=O)N[C@@H](CC(C)C)C(=O)N[C@H](C(=O)N[C@@H](Cc2c[nH]cn2)C(=O)N[C@@H](CO)C(=O)N[C@@H](CC(C)C)C(=O)N[C@H](C(=O)N[C@@H](CCC(=O)O)C(=O)N[C@@H](CCC(=O)O)C(=O)N[C@@H](CO)C(=O)N[C@@H](CCC(N)=O)C(=O)N[C@@H](CC(N)=O)C(=O)N[C@@H](CCC(N)=O)C(=O)N[C@@]2(C)CCCC=CCCC[C@@](C)(C(=O)N[C@@H](CCC(N)=O)C(=O)N[C@@H](CCC(=O)O)C(=O)N[C@@H](CC(C)C)C(=O)N[C@@H](CC(C)C)C(=O)N[C@@H](CCC(=O)O)C(N)=O)NC(=O)[C@H](CC(N)=O)NC(=O)[C@H](CCCCN)NC(=O)[C@H](CCC(=O)O)NC2=O)[C@@H](C)CC)[C@@H](C)CC)NC(=O)[C@H]([C@@H](C)O)NC(=O)[C@H](Cc2ccc(O)cc2)NC(=O)[C@H](CC(N)=O)NC1=O)[C@@H](C)CC)[C@@H](C)O [SAH-gp41(626-662)(C, F)] (Ac-[Nle]TW[Nle]EWDREI[S5]NYT[S5]LIHSLIEESQNQ[S5]EKN[S5]QELLE-NH2; staple 11-15, 28-32)",Half-Life,[1],8.23 h
same,% helicity at pH 2,[2],55%
same,% helicity at pH 7,[2],41%
"CCCC[C@H](NC(C)=O)C(=O)N[C@H](C(=O)N[C@@H](Cc1c[nH]c2ccccc12)C(=O)N[C@@H](CCCC)C(=O)N[C@@H](CCC(=O)O)C(=O)N[C@@H](Cc1c[nH]c2ccccc12)C(=O)N[C@@H](CC(=O)O)C(=O)N[C@@H](CCCNC(=N)N)C(=O)N[C@@H](CCC(=O)O)C(=O)N[C@H](C(=O)N[C@@H](CC(N)=O)C(=O)N[C@@H](CC(N)=O)C(=O)N[C@@H](Cc1ccc(O)cc1)C(=O)N[C@H](C(=O)N[C@@]1(C)CCCC=CCCC[C@@](C)(C(=O)N[C@@H](CC(C)C)C(=O)N[C@H](C(=O)N[C@@H](CCC(=O)O)C(=O)N[C@@H](CCC(=O)O)C(=O)N[C@@H](CO)C(=O)N[C@@H](CCC(N)=O)C(=O)N[C@@H](CC(N)=O)C(=O)N[C@@H](CCC(N)=O)C(=O)N[C@@]2(C)CCCC=CCCC[C@@](C)(C(=O)N[C@@H](CCC(N)=O)C(=O)N[C@@H](CCC(=O)O)C(=O)N[C@@H](CC(C)C)C(=O)N[C@@H](CC(C)C)C(=O)N[C@@H](CCC(=O)O)C(N)=O)NC(=O)[C@H](CC(N)=O)NC(=O)[C@H](CCCCN)NC(=O)[C@H](CCC(=O)O)NC2=O)[C@@H](C)CC)NC(=O)[C@H](Cc2c[nH]cn2)NC(=O)[C@H]([C@@H](C)CC)NC(=O)[C@H](CC(C)C)NC1=O)[C@@H](C)O)[C@@H](C)CC)[C@@H](C)O [SAH-gp41(626-662)(D, F)] (Ac-[Nle]TW[Nle]EWDREINNYT[S5]LIH[S5]LIEESQNQ[S5]EKN[S5]QELLE-NH2; staple 15-19, 28-32)",Half-Life,[1],3.02 h
Enfuvirtide,Half-Life,[3],0.2 h
"FITC-SAH-gp41(626-662)(A, F): FITC-labeled doubly stapled SAH-gp41(626-662)(A, F) ({FITC}-LTWAEWDAEINNYTSLIHSLIEESQNQAEKNAQELLE; not fully specified (bridges); also: doubly stapled, positions not given here)",higher-order complex formation with doubly-mutant HR1 peptides,[4],formed a higher-order complex
same,fold enhancement in binding activity,"[4]; compared to FITC-T649v, densitometric analyses",up to 2 fold
FITC-T649v: FITC-labeled T649v ({FITC}-LTWLEWDREINNYTSLIHSLIEESQNQQEKNEQELLE) [reference compound],higher-order complex formation with doubly-mutant HR1 peptides,[4],formed a higher-order complex
FITC-labeled enfuvirtide: FITC-labeled enfuvirtide [reference compound],higher-order complex formation with doubly-mutant HR1 peptides,[4],no interactions
enfuvirtide [listing 1 of 5 here],Half-Life,[3],0.417 h
same,"Half-life (minutes), pepsin",[5],3 min
same,% helicity at pH 2,[2],79%
same,% helicity at pH 7,[2],23%
enfuvirtide [listing 2 of 5 here],% helicity at pH 2,[2],57%
same,% helicity at pH 7,[2],30%
enfuvirtide [listing 3 of 5 here],"Half-life (minutes), pepsin",[5],920 min
enfuvirtide [listing 4 of 5 here],Half-Life,[3],1.67 h
same,"Half-life (minutes), pepsin",[5],227 min
same,% helicity at pH 2,[2],61%
same,% helicity at pH 7,[2],48%
enfuvirtide [listing 5 of 5 here],% helicity at pH 2,[2],66%
same,% helicity at pH 7,[2],26%
"unstapled counterpart: unstapled 20-mer truncation of T649v, residues 626-645 ([Nle]TW[Nle]EWDREINNYTSLIHSL) [reference compound]",α-helical content,"[2]; comparative CD spectra, 20-mer residues 626-645",20%
